Several values for one entry are separate records, joined by “and”; a condition that tells them apart may be missing. Identical values can stand only once.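 Each compound was tested at five concentrations against cells in 96-well plates for 48 hours. Abbreviation: GI50, concentration required for 50% inhibition of growth.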 Activity calls are given as the source filed them. No stated cut-off is given here; in the data, active = GI50 up to about 1.1 µM and inactive = higher.
How the values were obtained:
Assay in all cases: NCI anticancer screen, dose series, 48 h
MOLT-4 = system: MOLT-4
ACHN = system: ACHN
HOP-62 = system: HOP-62
NCI-H23 = system: NCI-H23
SF-539 = system: SF-539
OVCAR-3 = system: OVCAR-3
NCI/ADR-RES = system: NCI/ADR-RES
MDA-MB-435 = system: MDA-MB-435
NCI-H522 = system: NCI-H522
RXF 393 = system: RXF 393
SNB-19 = system: SNB-19
HCT-15 = system: HCT-15
U-251 = system: U-251
OVCAR-8 = system: OVCAR-8
Hs-578T = system: Hs-578T
SK-MEL-28 = system: SK-MEL-28
MDA-N = system: MDA-N
HCT-116 = system: HCT-116
MDA-MB-231 = system: MDA-MB-231

Compound | GI50 (MOLT-4) | GI50 (ACHN) | GI50 (HOP-62) | GI50 (NCI-H23) | GI50 (SF-539) | GI50 (OVCAR-3) | GI50 (NCI/ADR-RES) | GI50 (MDA-MB-435) | GI50 (NCI-H522) | GI50 (RXF 393) | GI50 (SNB-19) | GI50 (HCT-15) | GI50 (U-251) | GI50 (OVCAR-8) | GI50 (Hs-578T) | GI50 (SK-MEL-28) | GI50 (MDA-N) | GI50 (HCT-116) | GI50 (MDA-MB-231)
OC(CC(c1ccccc1)c1ccc(Cl)cc1)c1ccc(Cl)cc1 (centres undefined) | 34.2 µM (inactive) | 27.1 µM (inactive) | 36.4 µM (inactive) | 29.7 µM (inactive) | 21.4 µM (inactive) | 33.6 µM (inactive) | 33.5 µM (inactive) | 27.4 µM (inactive) | 25.1 µM (inactive) | 24.8 µM (inactive) | 45.2 µM (inactive) | 33.4 µM | 39.7 µM (inactive) | 36.8 µM (inactive) | 48.1 µM (inactive) | 51.6 µM (inactive) | 29 µM (inactive) | 31.3 µM (inactive) | –
CCN(CC)CCC(=O)c1ccc(Oc2ccc(C)cc2)cc1 | 21.6 µM (inactive) | 21.1 µM (inactive) | 19.1 µM (inactive) | 17.7 µM (inactive) | 18.8 µM (inactive) | 17.6 µM (inactive) | 23 µM (inactive) | 18 µM (inactive) | – | 16.4 µM (inactive) | 18.5 µM (inactive) | 18.7 µM | 17 µM (inactive) | 19.8 µM (inactive) | 23.4 µM (inactive) | 16.9 µM (inactive) | 17.7 µM (inactive) | 17.3 µM (inactive) | 16.9 µM (inactive)
COC(=O)/C=C1\C(CO[Si](C)(C)C(C)(C)C)OC(n2ccc(=O)[nH]c2=O)C1O (centres undefined) | 8.49 µM (inactive) | 12.6 µM (inactive) | 13.2 µM (inactive) | 7.08 µM (inactive) | 15.5 µM (inactive) | 21.6 µM (inactive) | 10.4 µM (inactive) | 8.13 µM (inactive) | – | 9.84 µM (inactive) | 18.5 µM (inactive) | 6.71 µM | 7.8 µM (inactive) | 8.95 µM (inactive) | – | 6.25 µM (inactive) | 7.67 µM (inactive) | 4.4 µM (inactive) | 34.5 µM (inactive)
COc1ccc(-c2c(C#N)c(N)n(C3OCC(OC(C)=O)C(OC(C)=O)C3OC(C)=O)c(=S)c2C#N)cc1 (centres undefined) | 17.6 µM (inactive) and 14.3 µM (inactive) | 48.9 µM (inactive) and 40.6 µM (inactive) | 40.9 µM (inactive) and 23.6 µM (inactive) | > 100 µM (inactive) | 88.9 µM (inactive) and 87.9 µM (inactive) | 31.8 µM (inactive) and 23.4 µM (inactive) | > 100 µM (inactive) | 25.3 µM (inactive) and 35.7 µM (inactive) | 38.8 µM (inactive) and 53.3 µM (inactive) | 19.1 µM (inactive) and 33.6 µM (inactive) | > 100 µM (inactive) | 73.1 µM and 62.5 µM | 32.9 µM (inactive) and 54.5 µM (inactive) | 39.3 µM (inactive) and 21.8 µM (inactive) | – | 61.4 µM (inactive) and 60.3 µM (inactive) | 43 µM (inactive) and 51.2 µM (inactive) | 41.1 µM (inactive) and 52.2 µM (inactive) | 41.7 µM (inactive) and 33 µM (inactive)
C=C1CC[C@]2(C)[C@H](CC[C@@]34C[C@@H](CC[C@H]32)[C@@H](C(=O)O)C4)C1(C)C | 6.17 µM (inactive) | 8.63 µM (inactive) | 5.36 µM (inactive) | > 12.5 µM (inactive) | 6.19 µM (inactive) | > 12.5 µM (inactive) | > 12.5 µM (inactive) | > 12.5 µM (inactive) | – | > 12.5 µM (inactive) | > 12.5 µM (inactive) | > 12.5 µM | > 12.5 µM (inactive) | > 12.5 µM (inactive) | 6.68 µM (inactive) | > 12.5 µM (inactive) | > 12.5 µM (inactive) | > 12.5 µM (inactive) | > 12.5 µM (inactive)
C=C(C)[C@@H]1CC[C@]2(COC(C)=O)CC[C@]3(C)[C@H](CC[C@@H]4[C@@]5(C)CC[C@H](OC(C)=O)C(C)(C)[C@@H]5CC[C@]43C)[C@@H]12 [BETULIN DIACETATE] | > 50 µM (inactive) | > 50 µM (inactive) | > 50 µM (inactive) | > 50 µM (inactive) | > 50 µM (inactive) | 3.01 µM (inactive) | > 50 µM (inactive) | > 50 µM (inactive) | > 50 µM (inactive) | 0.0385 µM (active) | > 50 µM (inactive) | > 50 µM | > 50 µM (inactive) | > 50 µM (inactive) | > 50 µM (inactive) | > 50 µM (inactive) | > 50 µM (inactive) | > 50 µM (inactive) | –
c1cncc(C2(c3cc4ccccc4[nH]3)COCO2)c1 (centres undefined) | 97.9 µM (inactive) | 77.3 µM (inactive) | > 100 µM (inactive) | > 100 µM (inactive) | > 100 µM (inactive) | > 100 µM (inactive) | > 100 µM (inactive) | > 100 µM (inactive) | – | > 100 µM (inactive) | > 100 µM (inactive) | > 100 µM | > 100 µM (inactive) | > 100 µM (inactive) | > 100 µM (inactive) | > 100 µM (inactive) | – | 71 µM (inactive) | > 100 µM (inactive)
CCOC(=O)C1(C)CCc2sc(N)c(C#N)c21 (centres undefined) | > 100 µM (inactive) | > 100 µM (inactive) | > 100 µM (inactive) | > 100 µM (inactive) | – | – | – | – | – | > 100 µM (inactive) | > 100 µM (inactive) | > 100 µM | > 100 µM (inactive) | > 100 µM (inactive) | > 100 µM (inactive) | > 100 µM (inactive) | > 100 µM (inactive) | > 100 µM (inactive) | > 100 µM (inactive)
COc1ccc(C2=NN(C(=N)S)C(c3ccccc3)C2)cc1 (centres undefined) | 28 µM (inactive) | 36.9 µM (inactive) | 38.2 µM (inactive) | 34 µM (inactive) | 61.5 µM (inactive) | 35.6 µM (inactive) | 34.5 µM (inactive) | 31 µM (inactive) | 25.5 µM (inactive) | 24.4 µM (inactive) | 51.8 µM (inactive) | 33.6 µM | 38.7 µM (inactive) | 39.7 µM (inactive) | 75.7 µM (inactive) | 91 µM (inactive) | 27.9 µM (inactive) | 31.5 µM (inactive) | –
COc1cc(COC(=O)N2CSCC2C(=O)O)c([N+](=O)[O-])cc1OC (centres undefined) | > 100 µM (inactive) | > 100 µM (inactive) | > 100 µM (inactive) | > 100 µM (inactive) | > 100 µM (inactive) | > 100 µM (inactive) | > 100 µM (inactive) | > 100 µM (inactive) | – | – | > 100 µM (inactive) | > 100 µM | > 100 µM (inactive) | > 100 µM (inactive) | > 100 µM (inactive) | – | > 100 µM (inactive) | > 100 µM (inactive) | –
COc1ccc2nc3ccccc3c(NCCCCN(CCCl)CCCl)c2c1 | 0.01 µM (active) | 0.041 µM (active) | 0.655 µM (active) | 0.147 µM (active) | 0.136 µM (active) | 0.118 µM (active) | 0.448 µM (active) | 0.323 µM (active) | 0.02 µM (active) | 0.0212 µM (active) | 0.783 µM (active) | 0.244 µM | 0.0752 µM (active) | 0.0218 µM (active) | 2 µM (inactive) | 0.752 µM (active) | – | 0.0733 µM (active) | 0.7 µM (active)
CCOC(=O)c1cnc2oc3ccc(O)cc3c2c1-c1ccccc1 | 7.4 µM (inactive) | 20.9 µM (inactive) | – | 32.7 µM (inactive) | 17.3 µM (inactive) | > 100 µM (inactive) | – | 19.2 µM (inactive) | – | 41.1 µM (inactive) | 52.4 µM (inactive) | 26.7 µM | 44.8 µM (inactive) | 12.7 µM (inactive) | 20.6 µM (inactive) | 36.6 µM (inactive) | 52.7 µM (inactive) | 57.8 µM (inactive) | 16.8 µM (inactive)
O=C1CN(c2cccc(Cl)c2)C(=O)CN1CCN1CC(=O)N(c2cccc(Cl)c2)CC1=O | > 100 µM (inactive) | > 100 µM (inactive) | > 100 µM (inactive) | 26.4 µM (inactive) | > 100 µM (inactive) | > 100 µM (inactive) | – | > 100 µM (inactive) | > 100 µM (inactive) | > 100 µM (inactive) | > 100 µM (inactive) | > 100 µM | > 100 µM (inactive) | > 100 µM (inactive) | > 100 µM (inactive) | > 100 µM (inactive) | > 100 µM (inactive) | > 100 µM (inactive) | –
CSc1scc2c1/C(=N/NC(N)=O)CCC2 | 58.1 µM (inactive) | > 100 µM (inactive) | > 100 µM (inactive) | > 100 µM (inactive) | > 100 µM (inactive) | > 100 µM (inactive) | 20.1 µM (inactive) | 52.8 µM (inactive) | – | – | > 100 µM (inactive) | > 100 µM | > 100 µM (inactive) | > 100 µM (inactive) | 82.6 µM (inactive) | > 100 µM (inactive) | 45.3 µM (inactive) | 70 µM (inactive) | > 100 µM (inactive)
CCCCOC(=O)c1cc(C(=CCC[C@H]2CC[C@@]3(C)[C@@H](CC[C@@H]4[C@@H]3CC[C@]3(C)[C@@H](C(C)CCCC(C)C)CC[C@@H]43)C2)c2cc(Cl)c(O)c(C(=O)OCCCC)c2)cc(Cl)c1O (some centres undefined) | > 5 µM (inactive) | – | > 50 µM (inactive) | > 50 µM (inactive) | – | > 50 µM (inactive) | > 50 µM (inactive) | > 50 µM (inactive) | – | – | > 50 µM (inactive) | > 50 µM | > 50 µM (inactive) | > 50 µM (inactive) | > 50 µM (inactive) | – | > 50 µM (inactive) | > 50 µM (inactive) | > 50 µM (inactive)
NCCC(=O)N[C@@H](Cc1cc(O)c(O)c(SCC(NC(=O)CC[C@H](N)C(=O)O)C(=O)NCC(=O)O)c1)C(=O)O (some centres undefined) | > 50 µM (inactive) | > 50 µM (inactive) | 34.4 µM (inactive) | > 50 µM (inactive) | – | > 50 µM (inactive) | > 50 µM (inactive) | > 50 µM (inactive) | > 50 µM (inactive) | > 50 µM (inactive) | > 50 µM (inactive) | > 50 µM | > 50 µM (inactive) | – | – | > 50 µM (inactive) | > 50 µM (inactive) | > 50 µM (inactive) | > 50 µM (inactive)
